pIC50: −log10 of the molar value.
Target: T1, Recombinant Human ENPP-2/Autotaxin (Homo sapiens, UniProt Q13822)
T1 construct: purchased R&D systems 5255-EN
Experiment: LysoPLD activity measurement (autotaxin enzyme inhibition, choline release, TOOS reagent)
Type: biochemical
Conditions: LysoPLD inhibitory activity; substrate 14:0 LysoPC; absorbance at 555 nm
Outline: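 Enzyme and compound were preincubated for 30 min before adding 14:0 LysoPC substrate, diluted to 300 μM, for 90 minutes at 37° C. The choline product was quantified colorimetrically with TOOS reagent. Wells without compound held 1% DMSO.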

Row | SMILES | pIC50
1 | O=C(O)c1cccc(C2(n3c(=O)n(-c4ccc(C5CCOCC5)nc4)c4cc(Cl)ccc43)CC2)c1 [Example 261, 3-(1-(5-chloro-2-oxo-3-(6-(tetrahydro-2H-pyran-4-yl)pyridin-3-yl)-2,3-dihydro-1H-benzo[d]imidazol-1-yl)cyclopropyl)benzoic acid] | 7.00 to 8.00
2 | O=C(O)c1cc(F)cc(C2(n3c(=O)n(-c4ccc(C5CCOCC5)nc4)c4cc(Cl)ccc43)CC2)c1 [Example 262, 3-(1-(5-chloro-2-oxo-3-(6-(tetrahydro-2H-pyran-4-yl)pyridin-3-yl)-2,3-dihydro-1H-benzo[d]imidazol-1-yl)cyclopropyl)-5-fluorobenzoic acid] | 7.00 to 8.00
3 | O=C(O)c1cccc(C2(n3c(=O)n(-c4ccc(-c5nnc(C6CC6)o5)cc4)c4cc(Cl)ccc43)CC2)c1 [Example 263, 3-(1-(5-chloro-3-(4-(5-cyclopropyl-1,3,4-oxadiazol-2-yl)phenyl)-2-oxo-2,3-dihydro-1H-benzo[d]imidazol-1-yl)cyclopropyl)benzoic acid] | > 8.00
4 | O=C(O)c1cccc(C2(n3c(=O)n(-c4ccc(-c5nnc(C6CCCCCC6)o5)cc4)c4cc(Cl)ccc43)CC2)c1 [Example 264, 3-(1-(5-chloro-3-(4-(5-cycloheptyl-1,3,4-oxadiazol-2-yl)phenyl)-2-oxo-2,3-dihydro-1H-benzo[d]imidazol-1-yl)cyclopropyl)benzoic acid] | 7.00 to 8.00
5 | O=C(O)c1cccc(C2(n3c(=O)n(-c4ccc(-c5nnc(C6CCCCC6)o5)cc4)c4cc(Cl)ccc43)CC2)c1 [Example 265, 3-(1-(5-chloro-3-(4-(5-cyclohexyl-1,3,4-oxadiazol-2-yl)phenyl)-2-oxo-2,3-dihydro-1H-benzo[d]imidazol-1-yl)cyclopropyl)benzoic acid] | 7.00 to 8.00
6 | O=C(O)c1cccc(C2(n3c(=O)n(-c4ccc(-c5nnc(C6CCCC6)o5)cc4)c4cc(Cl)ccc43)CC2)c1 [Example 266, 3-(1-(5-chloro-3-(4-(5-cyclopentyl-1,3,4-oxadiazol-2-yl)phenyl)-2-oxo-2,3-dihydro-1H-benzo[d]imidazol-1-yl)cyclopropyl)benzoic acid] | > 8.00
7 | O=C(O)c1cccc(C2(n3c(=O)n(-c4ccc(-c5nnc(C6CCOCC6)o5)cc4)c4cc(Cl)ccc43)CC2)c1 [Example 267, 3-(1-(5-chloro-2-oxo-3-(4-(5-(tetrahydro-2H-pyran-4-yl)-1,3,4-oxadiazol-2-yl)phenyl)-2,3-dihydro-1H-benzo[d]imidazol-1-yl)cyclopropyl)benzoic acid] | > 8.00
8 | O=C(O)c1cccc(C2(n3c(=O)n(-c4ccc(-c5nnc(C6CCOCC6)o5)cc4)c4cc(Cl)ccc43)CC2)c1F [Example 268, 3-(1-(5-chloro-2-oxo-3-(4-(5-(tetrahydro-2H-pyran-4-yl)-1,3,4-oxadiazol-2-yl)phenyl)-2,3-dihydro-1H-benzo[d]imidazol-1-yl)cyclopropyl)-2-fluorobenzoic acid] | > 8.00
9 | CCCn1cc(-c2ccc(-n3c(=O)n(C4(c5cccc(C(=O)O)c5)CC4)c4ccc(Cl)cc43)cc2)cn1 [Example 269, 3-(1-(5-chloro-2-oxo-3-(4-(1-propyl-1H-pyrazol-4-yl)phenyl)-2,3-dihydro-1H-benzo[d]imidazol-1-yl)cyclopropyl)benzoic acid] | > 8.00
10 | CCCn1cc(-c2ccc(-n3c(=O)n(C4(c5cccc(C(=O)O)c5)CC4)c4ncc(Cl)cc43)cc2)cn1 [Example 270, 3-(1-(6-chloro-2-oxo-1-(4-(1-propyl-1H-pyrazol-4-yl)phenyl)-1,2-dihydro-3H-imidazo[4,5-b]pyridin-3-yl)cyclopropyl)benzoic acid] | > 8.00
11 | CN(C)c1ccc(-n2c(=O)n(C3(c4cc(F)cc(C(=O)O)c4)CC3)c3ncc(Cl)cc32)cc1 [Example 271, 3-(1-(6-chloro-1-(4-(dimethylamino)phenyl)-2-oxo-1,2-dihydro-3H-imidazo[4,5-b]pyridin-3-yl)cyclopropyl)-5-fluorobenzoic acid] | > 8.00
12 | CN(C)C(=O)c1ccc(-n2c(=O)n(C3(c4cc(F)cc(C(=O)O)c4)CC3)c3ncc(Cl)cc32)cc1 [Example 272, 3-(1-(6-chloro-1-(4-(dimethylcarbamoyl)phenyl)-2-oxo-1,2-dihydro-3H-imidazo[4,5-b]pyridin-3-yl)cyclopropyl)-5-fluorobenzoic acid] | > 8.00
13 | O=C(O)c1cc(F)cc(C2(n3c(=O)n(-c4ccc(C5CCOCC5)cc4)c4cc(Cl)cnc43)CC2)c1 [Example 273, 3-(1-(6-chloro-2-oxo-1-(4-(tetrahydro-2H-pyran-4-yl)phenyl)-1,2-dihydro-3H-imidazo[4,5-b]pyridin-3-yl)cyclopropyl)-5-fluorobenzoic acid] | 7.00 to 8.00
14 | O=C(O)c1cc(F)cc(C2(n3c(=O)n(-c4ccc(N5CCOCC5)cc4)c4cc(Cl)cnc43)CC2)c1 [Example 274, 3-(1-(6-chloro-1-(4-morpholinophenyl)-2-oxo-1,2-dihydro-3H-imidazo[4,5-b]pyridin-3-yl)cyclopropyl)-5-fluorobenzoic acid] | > 8.00
15 | O=C(O)c1cc(F)cc(C2(n3c(=O)n(-c4ccc(C(=O)N5CC6(CCOCC6)C5)cc4)c4cc(Cl)cnc43)CC2)c1 [Example 275, 3-(1-(1-(4-(7-oxa-2-azaspiro[3.5]nonane-2-carbonyl)phenyl)-6-chloro-2-oxo-1,2-dihydro-3H-imidazo[4,5-b]pyridin-3-yl)cyclopropyl)-5-fluorobenzoic acid] | > 8.00
16 | O=C(O)c1cc(F)cc(C2(n3c(=O)n(-c4ccc(C(=O)N5CCCC5)cc4)c4cc(Cl)cnc43)CC2)c1 [Example 276, 3-(1-(6-chloro-2-oxo-1-(4-(pyrrolidine-1-carbonyl)phenyl)-1,2-dihydro-3H-imidazo[4,5-b]pyridin-3-yl)cyclopropyl)-5-fluorobenzoic acid] | > 8.00

From US20260265265A1, “NOVEL BENZIMIDAZOLONE DERIVATIVE COMPOUND AS AUTOTAXIN INHIBITOR” (LG CHEM, LTD., priority 2023, published 2026)
